Results from EPA's ToxValDB 9.5 (doi:10.2903/j.efsa.2009.1390).
Converted amounts (≈) assume the structure as drawn.

Tests used:
Anas platyrhynchos = details: acute; oral; unspecified; mortality
Apis mellifera = details: acute, mortality
Bibionidae = details: chronic/long-term; duration: 28 days
Canidae = details: chronic; duration: 1 years; oral; Dog Other; organ weight
Daphnia magna = details: chronic/long-term; duration: 21 days; reproduction
Oryctolagus sp. = details: reproduction developmental; body weight
Rattus norvegicus = details: acute; oral; F; mortality
Typhlodromus pyri = assay: LR50; higher = less toxic; details: not reported; mortality

| Structure (SMILES) | LD50 (Anas platyrhynchos) [mg/kg-day] | LC50 (Colinus virginianus; acute, oral, diet, mortality) [mg/kg-day] | LD50 (Apis mellifera; dermal) [µg/piece] | LD50 (Apis mellifera; oral, unspecified) [µg/piece] | NOEC (Bibionidae) [mg/L] | NOAEL (Canidae) [mg/kg-day] | NOEC (Colinus virginianus; reproduction developmental) [mg/kg-day] | NOEC (Daphnia magna) [mg/L] | LC50 (Oncorhynchus mykiss; acute, duration: 96 hours, mortality) [µg/mL] | NOEC (Oncorhynchus mykiss; chronic/long-term, duration: 70 days, development) [mg/L] | NOAEL (Oryctolagus sp.) [mg/kg-day] | LD50 (Rattus norvegicus) [mg/kg-day] | LC50 (Tagia sp.; acute, duration: 14 days, mortality) [mg/kg] | NOEC (Tagia sp.; chronic/long-term, duration: 8 weeks) [mg/kg] | LR50 (Typhlodromus pyri) [g/ha] |
| --- | --- | --- | --- | --- | --- | --- | --- | --- | --- | --- | --- | --- | --- | --- | --- |
| Nc1c(Cl)c(Cl)nc(C(=O)[O-])c1Cl.[K+] [Picloram potassium salt] | > 2250 | > 2200 |  |  |  |  |  |  |  |  |  |  |  |  |  |
| Nc1c(Cl)c(Cl)nc(C(=O)O)c1Cl [Picloram] |  |  | > 100 | > 74 | 100 | 35 | 65 | 6.79 | 8.8 (≈ 36.4 µM) | 0.55 | 30 | 4010 | > 4480 | 0.167 | > 23.4 |
